Toxic doses and inconclusive results are not listed. Rule for the calls: active = survival T/C of 150% or more; inactive = T/C below 125% in these data.
Tested on: CD2F1 mice, L1210 leukemia ip, survival T/C
Test: NCI In Vivo Anticancer Drug Screen. Data for tumor model L1210 Leukemia (intraperitoneal) in CD2F1 (CDF1) mice
Conditions: endpoint: mean survival time, higher = longer survival
In short: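 Transplantable tumor in mice; compound-treated vs vehicle-treated groups. Read-out = treated/control ratio of the measured endpoint.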

Measured: T/C

Cn1c(CC#N)c(C[N+](C)(C)C)c2ccccc21
inactive: dose: 2.5 mg/kg/injection, schedule: Q01DX009 (ip), vehicle: saline with Tween-80 97 % of control | dose: 5.0 mg/kg/injection, schedule: Q01DX001 (ip), vehicle: saline with Tween-80 102 % of control | dose: 5.0 mg/kg/injection, schedule: Q01DX009 (ip), vehicle: saline with Tween-80 97 % of control | dose: 10.0 mg/kg/injection, schedule: Q01DX001 (ip), vehicle: saline with Tween-80 96 % of control

N#CC1C=Cc2ccccc2N1C(=O)Oc1ccccc1 (configuration not stated)
inactive: dose: 100.0 mg/kg/injection, schedule: Q01DX009 (ip), vehicle: saline 95 % of control | dose: 200.0 mg/kg/injection, schedule: Q01DX009 (ip), vehicle: saline 93 % of control | dose: 400.0 mg/kg/injection, schedule: Q01DX009 (ip), vehicle: saline 89 % of control

COC(=O)C1=CCC=CC1
inactive: dose: 100.0 mg/kg/injection, schedule: Q01DX009 (ip), vehicle: saline with Tween-80 104 % of control | dose: 200.0 mg/kg/injection, schedule: Q01DX009 (ip), vehicle: saline with Tween-80 104 % of control

O=C(NC(=O)c1ccccc1)NC1=C(Cl)C(=O)c2ccccc2C1=O
inactive: dose: 100.0 mg/kg/injection, schedule: Q01DX001 (ip), vehicle: other 106 % of control | dose: 200.0 mg/kg/injection, schedule: Q01DX001 (ip), vehicle: other 104 % of control | dose: 400.0 mg/kg/injection, schedule: Q01DX001 (ip), vehicle: other 109 % of control
